The values below are quoted from earlier work in patent publication US20120100040A1, “COMPOSITION FOR S[…]” (Bakteriefritt AS, priority 2009, published 2012).

The structures appear in SMILES notation.

For this series the following is noted: rat, orally.

As for `CS(C)(=O)=O` [dimethylsulfone], the LD50 was more than 5000 mg/kg.

For orientation: LD50 means the dose expected to kill half of the subjects tested.
